Experimental data taken from patent US20250381117A1 (MARY KAY INC., priority 2024, published 2025).
Like-named read-outs stand apart in the source and are kept apart here.

Assays:
[1] = at 25° C., cited from earlier work
[2] = Solubility Analyses (Example 1): dissolution in water; type: physicochemical

dissolution in water ([2]; melatonin 1.2% (w/w) in the absence of caffeine): did not completely dissolve | dissolution in water ([2]; melatonin 2% (w/w) in the absence of caffeine): did not dissolve completely
SMILES: COc1ccc2[nH]cc(CCNC(C)=O)c2c1 [melatonin]
solubility in water [1]: approximately 0.01 g/100 mL | solubility in water ([1]; same value given in percent): approximately 0.01%
